US8044204B2, “8-methoxy-9H-isothiazolo[5,4-b]quinoline-3,4-diones and related compounds as anti-infective agents” (Achillion Pharmaceuticals, Inc., priority 2005, dated 2011)
Where a name gives a salt, the structure may show the parent alone.

Assays:
Type in all cases: cell-based
MRSA strain ATCC 700699 = experiment: Minimum Inhibitory Concentration (MIC) assay, Methicillin Resistant S. Aureus; conditions: Staphylococcus aureus; broth microdilution; read-out: MIC against Methicillin Resistant S. Aureus
Excerpt: It has been unexpectedly discovered that substitution of compounds of Formula I and Formula II with a methoxy substituent at the R8 position increases the anti-microbial activity of the compound against Methicillin resistant Staphylococcus Aureus bacteria while at the same time decreasing the cellular toxicity of the compound. The simultaneous increase in compound activity and decrease in compound toxicity provides a greater therapeutic range for compounds of Formula I and Formula II in which R8 is methoxy; i.e. the range of doses of such compounds that will produce beneficial effects without harmful side effects is increased. […] Therapeutic range is determined using a standard assay of cytotoxicity such as the Alamar blue assay provided in Example 10.
(§1) The antimicrobial activity of the compounds of the invention may be evaluated by a number of methods, including the following visual minimum inhibitory concentration (MIC) assay. This assay determines the minimum concentration of compound required to inhibit growth of a bacterial strain.
(§2) Minimum Inhibitory Concentration (MIC) Assay
(§3) Whole-cell antibacterial activity is determined by broth microdilution using conditions recommended by the NCCLS (see National Committee for Clinical Laboratory Standards. 2001. Performance standards for antimicrobial susceptibility testing: 11th informational supplement. Vol. 21, no. 1, M100-S11. National Committee for Clinical Laboratory Standards, Wayne, Pa.). Test compounds are dissolved in DMSO and diluted 1:50 in Mueller-Hinton II broth (Becton-Dickinson) to produce a 256 μg/ml stock solution. In a 96-well microtiter plate, the compound solution is serially two-fold diluted in Mueller-Hinton II broth. After the compounds are diluted, a 50 μl aliquot of the test organism (˜1×10^6 cfu/mL) is added to each well of the microtiter plate. The final test concentrations ranges from 0.125-128 μg/mL. Inoculated plates are incubated in ambient air at 37° C. for 18 to 24 hours. The organisms selected for testing included laboratory strains S. aureus ATCC 29213 and E. coli ATCC 25922 (strains purchased from American Type Culture Collection, Manassas, Va.), S. aureus FQR700699, and Paeruginosa 27853. The minimum inhibitory concentration (MIC) is determined as the lowest concentration of compound that inhibited visible growth of the test organism.

S. aureus ATCC 29213 = experiment: Minimum Inhibitory Concentration (MIC) assay, S. aureus; conditions: Staphylococcus aureus, ATCC29213; broth microdilution; read-out: MIC against S. Aureus
Description: as §1, §2, §3

E. coli ATCC 25922 = experiment: Minimum Inhibitory Concentration (MIC) assay, E. coli; conditions: Escherichia coli, ATCC25922; broth microdilution; read-out: MIC against E. coli
Description: as §1, §2, §3

SMILES | MIC (MRSA strain ATCC 700699) [µg/mL] | MIC (S. aureus ATCC 29213) [µg/mL] | MIC (E. coli ATCC 25922) [µg/mL]
CCNC(C)[C@@H]1CCN(c2c(F)cc3c(=O)c4c(=O)[nH]sc4n(C4CC4)c3c2OC)C1 (stereo partly drawn) [Compound 77, (R)-9-cyclo-propyl-7-(3-(1-(ethyl-amino)ethyl)pyrrolidin-1-yl)-6-fluoro-8-methoxyiso-thiazolo[5,4-b]quinoline-3,4(2H,9H)-dione] | ≤ 1 | ≤ 1 | ≤ 1
COc1c(N2CC[C@H](C(C)NC3CC3)C2)c(F)cc2c(=O)c3c(=O)[nH]sc3n(C3CC3)c12 (stereo partly drawn) [Compound 94, (S)-9-cyclo-propyl-7-(3-(1-(cyclo-propylamino)ethyl)-pyrrolidin-1-yl)-6-fluoro-8-methoxyiso-thiazolo[5,4-b]quinoline-3,4(2H,9H)-dione] | ≤ 1 | ≤ 1 | ≤ 1
COc1c(N2CC[C@@H](CNC3CC3)C2)c(F)cc2c(=O)c3c(=O)[nH]sc3n(C3CC3)c12 [Compound 88, (S)-9-cyclo-propyl-7-(3-((cyclopropyl-amino)-methyl)-pyrrolidin-1-yl)-6-fluoro-8-methoxyiso-thiazolo[5,4-b]quinoline-3,4(2H,9H)-dione] | ≤ 1 | ≤ 1 | ≤ 1
COc1c(N2CC[C@@H](C(C)(C)N)C2)ccc2c(=O)c3c(=O)[nH]sc3n(C3CC3)c12 [Compound 54, (R)-7-(3-(2-aminopropan-2-yl)pyrrolidin-1-yl)-9-cyclopropyl-8-methoxyiso-thiazolo[5,4-b]quinoline-3,4(2H,9H)-dione, hydrochloride] | ≤ 1 | ≤ 1 | ≤ 1
CNC[C@@H]1CCN(c2c(F)cc3c(=O)c4c(=O)[nH]sc4n(C4CC4)c3c2OC)C1 [Compound 87, (S)-9-cyclo-propyl-6-fluoro-8-methoxy-7-(3-((methylamino)-methyl)pyrrolidin-1-yl)isothia-zolo[5,4-b]quinoline-3,4(2H,9H)-dione] | ≤ 1 | ≤ 1 | ≤ 1
COc1c(N2CC[C@@H](C3(N)CC3)C2)c(F)cc2c(=O)c3c(=O)[nH]sc3n(C3CC3)c12 [Compound 55, (R)-7-(3-(1-amino-cyclopropyl)pyrrolidin-1-yl)-9-cyclopropyl-6-fluoro-8-methoxyiso-thiazolo[5,4-b]quinoline-3,4(2H,9H)-dione, hydrochloride] | ≤ 1 | ≤ 1 | ≤ 1
CCNC(C)(C)[C@@H]1CCN(c2c(F)cc3c(=O)c4c(=O)[nH]sc4n(C4CC4)c3c2OC)C1 [Compound 89, (R)-9-cyclo-propyl-7-(3-(2-(ethyl-amino)propan-2-yl)pyrrolidin-1-yl)-6-fluoro-8-methoxyiso-thiazolo[5,4-b]quinoline-3,4(2H,9H)-dione] | ≤ 1 | ≤ 1 | ≤ 1
COc1c(N2CC(C)C(CN)C2)c(F)cc2c(=O)c3c(=O)[nH]sc3n(C3CC3)c12 (stereo not drawn) [Compound 95, 7-(3-(amino-methyl)-4-methyl-pyrrolidin-1-yl)-9-cyclopropyl-6-fluoro-8-methoxyiso-thiazolo[5,4-b]quinoline-3,4(2H,9H)-dione] | ≤ 1 | ≤ 1 | ≤ 1
CNC(C)[C@@H]1CCN(c2c(F)cc3c(=O)c4c(=O)[nH]sc4n(C4CC4)c3c2OC)C1 (stereo partly drawn) [Compound 74, (R)-9-cyclopropyl-6-fluoro-8-methoxy-7-(3-(1-(methyl-amino)ethyl)-pyrrolidin-1-yl)isothia-zolo[5,4-b]quinoline-3,4(2H,9H)-dione] | ≤ 1 | ≤ 1 | ≤ 1
COc1c(N2CC[C@@H](C(C)N)C2)c(F)cc2c(=O)c3c(=O)[nH]sc3n(C3CC3)c12 (stereo partly drawn) [Compound 73, (R)-7-(3-(1-aminoethyl)pyrrolidin-1-yl)-9-cyclopropyl-6-fluoro-8-methoxyiso-thiazolo[5,4-b]quinoline-3,4(2H,9H)-dione] | ≤ 1 | ≤ 1 | ≤ 1
COc1c(N2CCC(C(C)(C)N)C2)c(F)cc2c(=O)c3c(=O)[nH]sc3n(C3CC3)c12 (stereo not drawn) [Compound 57, 7-(3-(2-aminopropan-2-yl)pyrrolidin-1-yl)-9-cyclopropyl-6-fluoro-8-methoxyiso-thiazolo[5,4-b]quinoline-3,4(2H,9H)-dione] | ≤ 1 | ≤ 1 | ≤ 1
COc1c(N2CC[C@@H](C3(N)CC3)C2)ccc2c(=O)c3c(=O)[nH]sc3n(C3CC3)c12 [Compound 56, (R)-7-(3-(1-aminocyclo-propyl)pyrrolidin-1-yl)-9-cyclopropyl-8-methoxy-isothia-zolo[5,4-b]quinoline-3,4(2H,9H)-dione, hydrochloride] | ≤ 1 | ≤ 1 | ≤ 1

Other lines, results leading:

MIC (MRSA strain ATCC 700699) [µg/mL] | MIC (S. aureus ATCC 29213) [µg/mL] | MIC (E. coli ATCC 25922) [µg/mL] | SMILES
≤ 1 | ≤ 1 | ≤ 1 | COc1c(N2CC(C)C(C#N)C2)c(F)cc2c(=O)c3c(=O)[nH]sc3n(C3CC3)c12 (stereo not drawn) [Compound 100, 1-(9-cyclo-propyl-6-fluoro-8-methoxy-3,4-dioxo-2,3,4,9-tetrahydroisothia-zolo[5,4-b]quinolin-7-yl)-4-methyl-pyrrolidine-3-carbonitrile]
≤ 1 | ≤ 1 | ≤ 1 | [2H]C1([2H])CC(C(C)(C)N)C([2H])([2H])N1c1c(F)cc2c(=O)c3c(=O)[nH]sc3n(C3CC3)c2c1OC (stereo not drawn) [Compound 71, 7-(3-(2-amino-propan-2-yl)-2,2,5,5-tetradeuterated-pyrrolidin-1-yl)-9-cyclopropyl-6-fluoro-8-methoxyiso-thiazolo[5,4-b]quinoline-3,4(2H,9H)-dione]
≤ 1 | ≤ 1 | ≤ 1 | COc1c(N(C)C)c(F)cc2c(=O)c3c(=O)[nH]sc3n(C3CC3)c12 [Compound 42, 9-cyclopropyl-7-(dimethyl-amino)-6-fluoro-8-methoxyiso-thiazolo[5,4-b]quinoline-3,4(2H,9H)-dione]
≤ 1 | ≤ 1 | ≤ 1 | CC(C)(N)C1CCN(c2c(F)cc3c(=O)c4c(=O)[nH]sc4n(C4CC4)c3c2F)C1 (stereo not drawn) [Compound 75, 7-(3-(2-amino-propan-2-yl)pyrrolidin-1-yl)-9-cyclo-propyl-6,8-difluoroiso-thiazolo[5,4-b]quinoline-3,4(2H,9H)-dione]
≤ 1 | ≤ 1 | ≤ 1 | CNC(C)[C@@H]1CCN(c2ccc3c(=O)c4c(=O)[nH]sc4n(C4CC4)c3c2OC)C1 (stereo partly drawn) [Compound 103, (R)-9-cyclo-propyl-8-methoxy-7-(3-(1-(methylamino)-ethyl)pyrrolidin-1-yl)isothia-zolo[5,4-b]quinoline-3,4(2H,9H)-dione]
≤ 1 | ≤ 1 | ≤ 1 | COc1c(N2CC[C@@H](C(C)N)C2)ccc2c(=O)c3c(=O)[nH]sc3n(C3CC3)c12 (stereo partly drawn) [Compound 102, (R)-7-(3-(1-aminoethyl)-pyrrolidin-1-yl)-9-cyclopropyl-8-methoxyiso-thiazolo[5,4-b]quinoline-3,4(2H,9H)-dione]
≤ 1 | ≤ 1 | ≤ 1 | COc1c(N2CC[C@@H](C(C)NC3CC3)C2)c(F)cc2c(=O)c3c(=O)[nH]sc3n(C3CC3)c12 (stereo partly drawn) [Compound 93, (R)-9-cyclo-propyl-7-(3-(1-(cyclo-propylamino)ethyl)-pyrrolidin-1-yl)-6-fluoro-8-methoxyiso-thiazolo[5,4-b]quinoline-3,4(2H,9H)-dione]
